US11278561B2, “Combination treatment for hematological cancers” (Geron Corporation, priority 2016, dated 2022)

Experiments:
KG-1 cells = assay: Annexin V / Propidium Iodide flow cytometry apoptosis assay in KG-1; assay type: cell-based; parameters: key to Excess over HSA / Excess over BLISS: excess in % apoptotic (Annexin V/PI double-labeled) cells over HSA/Bliss; conditions: for Excess over BLISS / Excess over HSA: imetelstat sodium μM: r7 50, r8 25, r9 10, r10 0
Experimental: AML tumor cells KG-1 (ATCC #CCL-246) and MOLM-13 (DSMZ #ACC554) were plated at a density of ˜20,000 cells per well on 96-well polystyrene U-bottom tissue culture plates (Corning catalog #353777) in RPMI-1640 (ThermoFisher catalog #11875-085) supplemented with 10% fetal bovine serum (ThermoFisher catalog #16140-089) and 1% penicillin/streptomycin antibiotic cocktail (ThermoFisher catalog 15140-122) and grown in a 37° C. incubator under humidified 5% CO2 atmosphere.
At 48 and 96 hours, cells were measured for healthy, early apoptotic and apoptotic populations with an Annexin V (interior cell membrane stain) plus Propidium Iodide (PI, DNA binding dye) flow cytometry assay kit (BioLegend catalog 640914). Annexin V detects the externalization of phosphatidylserine in apoptotic cells using recombinant annexin V conjugated to green-fluorescent FITC dye and dead cells using Propidium iodide (PI). Propidium iodide stains necrotic cells with red fluorescence. After treatment with both probes, early apoptotic cells show green fluorescence, apoptotic (dead) cells show red and green fluorescence, and live cells show little or no fluorescence. […] Cells were stained for 30 minutes at 4° C. in the dark, followed by 3× washes with PBS and suspension in FACs Stain Buffer (BD catalog 554657) prior to interrogation on a BD FACs Canto flow cytometer for forward scatter, side scatter, FITC, and PE channels. […] The percentage of apoptotic cells (double labeled) was used to calculate combination effects using both the Highest Single Agent (HSA) and Bliss additivity models (J Tang et al. Frontiers in Pharmacology. 2015; 6 (181)).
Using the HSA model, the cytotoxic effect of the combined condition (“C”) was compared to the effect generated by each of the single agent controls (“A” or “B”) for the respective dose in the combination: Excess over HSA=C−A (if A>B) or C−B (if A<B)
The Bliss model performs a similar comparison, but instead of the highest effect of single agent, the Bliss model subtracts from the combination a value equal to the sum of each single agent minus their product: Excess over Bliss=C−[(A+B)−(A*B)]

telomerase = telomerase activity by qPCR TRAP in KG-1 lysates; assay type: cell-based, human; conditions: 50 μM imetelstat sodium or 20 nM ABT-199
Experimental: Samples from the previous section for protein analysis were collected as cell pellets by centrifugation at 5 minutes for 1500K for lyses and protein extraction. Protein lysates were analyzed by utilizing a modified method combined from two primary sources (Hou, et al. (2001) 43(3) 519-524 and Nature Protocols (2006) 1 (3) 1583-1590). Lysates were generated by adding 80 μL of a 10 mM Tris-EDTA, 1% NP-40, 10% Glycerol, 150 mM NaCl, 1 mM MgCl2, 250 μM Sodium Deoxycholate, 100 μM AEBSF, 5 mM 2-mercaptoethanol buffer and incubating on ice for 30 minutes. Lysates were centrifuged for 15 minutes at max speed and at 4° C. to pellet cellular debris. Protein yield from clarified lysates were quantified using a BCA assay (ThermoFisher catalog 23252) and subjected to a qPCR TRAP-based assay to determine relative telomerase activity (Power SYBR Green PCR Master Mix—ThermoFisher #4367659) using a ViiA7 Real-Time PCR system from ThermoFisher. In this assay, protein lysates are exposed to synthetic oligonucleotides mimicking telomere sequences in the presence of excess dNTPs and SYBR green dye. The greater the activity of telomerase, the greater extension of the synthetic primers, and therefore greater staining of nucleic acid and signal generated by the SYBR dye. This signal is compared to a standard curve of control protein lysate to determine the relative telomerase activity between samples.

[1] = system: CD45+ leukocytes from AML patient PBMCs; assay: ex vivo viability of AML patient PBMCs, CD45+ leukocytes; assay type: cell-based, human; conditions: 16-hour and 40-hour exposure; imetelstat sodium 25, 50 μM and/or venetoclax 20, 100 nM; mean of four patients
Experimental: AML cell lines (see Example 1) and AML patient peripheral blood mononuclear cell (“PBMC”) samples, which were obtained from AML patient whole blood after Ficoll purification, were treated with imetelstat sodium or venetoclax alone, or in combination, and viable and apoptotic populations of cells were evaluated by flow cytometry. Telomerase activity, hTERT expression and mitochondrial dysfunction were investigated for mechanism of action. […] Apoptosis was measured via flow cytometry staining for Annexin V and propidium iodide. Unstained (i.e. double negative) cells constitute viable cells remaining after treatment.
Specifically, whole blood from AML patients (n=4) was purified using Ficoll-Paque Plus (GE Healthcare catalog #17-1440-03) to purify PBMCs. […]
After 16- and 40-hours of treatment, cells were measured for healthy, early apoptotic and apoptotic populations with an Annexin V (interior cell membrane stain) plus propidium iodide (PI, DNA binding dye) flow cytometry assay kit (BioLegend catalog #640914) as described in the Example 1. […] Means and standard deviations were determined for the four patients for CD45^+ (leukocytes) and CD45^+/CD34^+ (leukemic stem cells) populations.

Compound: CC1(C)CCC(CN2CCN(c3ccc(C(=O)NS(=O)(=O)c4ccc(NCC5CCOCC5)c([N+](=O)[O-])c4)c(Oc4cnc5[nH]ccc5c4)c3)CC2)=C(c2ccc(Cl)cc2)C1 [ABT-199, 4-[4-[[2-(4-chlorophenyl)-4,4-dimethylcyclohexen-1-yl]methyl]piperazin-1-yl]-N-[3-nitro-4-(oxan-4-ylmethylamino)phenyl]sulfonyl-2-(1H-pyrrolo [2,3-b]pyridin-5-yloxy)benzamide]
- Excess over BLISS (KG-1 cells; KG-1, 48 hours (title of Table 6), ABT-199 1 nM): 0
- Excess over BLISS (KG-1 cells; KG-1, 48 hours (title of Table 6), ABT-199 5 nM): 0
- Excess over BLISS (KG-1 cells; KG-1, 48 hours (title of Table 6), ABT-199 20 nM): 0
- Excess over BLISS (KG-1 cells; KG-1, 48 hours (title of Table 6), ABT-199 100 nM): 0
- Excess over BLISS (KG-1 cells; KG-1, 48 hours (title of Table 6), ABT-199 500 nM): 0
- Excess over BLISS (KG-1 cells; KG-1, 48 hours, ABT-199 1 nM): 0
- Excess over HSA (KG-1 cells; KG-1, 48 hours, ABT-199 1 nM): 0
- Excess over BLISS (KG-1 cells; KG-1, 48 hours, ABT-199 5 nM): 0
- Excess over HSA (KG-1 cells; KG-1, 48 hours, ABT-199 5 nM): 0
- Excess over BLISS (KG-1 cells; KG-1, 48 hours, ABT-199 20 nM): 0
- Excess over HSA (KG-1 cells; KG-1, 48 hours, ABT-199 20 nM): 0
- % apoptotic cells (double label) (KG-1 cells; KG-1, 48 hours, ABT-199 100 nM): ~9%
- Excess over BLISS (KG-1 cells; KG-1, 48 hours, ABT-199 100 nM): 0
- Excess over HSA (KG-1 cells; KG-1, 48 hours, ABT-199 100 nM): 0
- % apoptotic cells (double label) (KG-1 cells; KG-1, 48 hours, ABT-199 500 nM): ~14%
- Excess over BLISS (KG-1 cells; KG-1, 48 hours, ABT-199 500 nM): 0
- Excess over HSA (KG-1 cells; KG-1, 48 hours, ABT-199 500 nM): 0
- Excess over HSA (KG-1 cells; KG-1, 96 hours, ABT-199 1 nM): 0
- Excess over HSA (KG-1 cells; KG-1, 96 hours, ABT-199 5 nM): 0
- Excess over HSA (KG-1 cells; KG-1, 96 hours, ABT-199 20 nM): 0
- % apoptotic cells (double label) (KG-1 cells; KG-1, 96 hours, ABT-199 100 nM): ~6%
- Excess over HSA (KG-1 cells; KG-1, 96 hours, ABT-199 100 nM): 0
- % apoptotic cells (double label) (KG-1 cells; KG-1, 96 hours, ABT-199 500 nM): ~10%
- Excess over HSA (KG-1 cells; KG-1, 96 hours, ABT-199 500 nM): 0
- telomerase activity as compared to control (telomerase; KG-1, 48 hours): no effect
- telomerase activity as compared to control (telomerase; KG-1, 96 hours): ~80%
- viability of CD45+ leukocytes derived from AML patients [1]: only moderately impacted
